As a reminder, the EC50 is the midpoint of the concentration-response curve. In general, IC50 refers to the concentration that gives 50% inhibition.

Assay [1] concerns B16-F10 cells. The assay is described as follows: Cell proliferation assay (CellTiter-Glo) in IFN-gamma treated B16-F10 cells. Type of assay: cell-based. Conditions: 120 h, mouse IFN-gamma 10 ng/mL, read-out: PTPN2 Prolif 5d B16F10 EC50. In general terms: Cellular ATP, detected with luciferase, serves as a proxy for viable cell number.
The test system of assay [2] is phosphorylated STAT1 protein levels in B16-F10 cells. The assay is described as follows: Phospho-STAT1 (Tyr701) HTRF assay in IFN-gamma treated B16-F10 cells. It counts as cell-based. Conditions: mouse IFN-gamma 100 ng/mL, 1 hour, read-out: pSTAT1 HTRF B16 EC50. In a few lines: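 Mouse B16-F10 cells, 10,000/well, pretreated 1 h with compound (0.15% DMSO), then stimulated with mouse IFN-gamma at 100 ng/mL final for 1 h at 37 C. Phospho-STAT1 (Tyr701) measured by HTRF.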

Assay [3] has as its target T1, PTPN2 enzyme (Homo sapiens, UniProt P17706).
T1 sequence (P17706 1-415): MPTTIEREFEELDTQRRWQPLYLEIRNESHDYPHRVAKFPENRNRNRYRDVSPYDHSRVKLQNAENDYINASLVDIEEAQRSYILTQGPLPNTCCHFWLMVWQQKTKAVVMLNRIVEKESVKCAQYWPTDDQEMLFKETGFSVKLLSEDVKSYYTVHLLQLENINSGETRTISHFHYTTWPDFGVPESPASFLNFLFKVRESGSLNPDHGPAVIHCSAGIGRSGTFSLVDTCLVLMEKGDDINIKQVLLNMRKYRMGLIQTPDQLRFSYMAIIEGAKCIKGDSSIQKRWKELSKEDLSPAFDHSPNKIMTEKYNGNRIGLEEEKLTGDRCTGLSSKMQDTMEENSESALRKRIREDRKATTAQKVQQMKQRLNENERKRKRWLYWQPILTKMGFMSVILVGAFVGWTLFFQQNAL
The assay is described as follows: PhosphoSens PTPN2 biochemical assay. Conditions: substrate AQT0264 20 μM, room temperature; read-out: PTPN2 BCHEM IC50. In outline:
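PhosphoSens fluorescence format with 20 μM final AQT0264 substrate and […] in 50 mM HEPES pH 7.5, 500 μM EGTA, […], 0.01% Brij-35, 1% glycerol, 1 mM DTT, 0.2 mg/mL BSA. Compounds in 3-fold dilution series; progress curves read (ex 360/em 480 nm) every 71 s for 1 h at room temperature.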

With `O=C1CN(c2c(O)cc(CN3CCC(O)CC3)cc2F)S(=O)(=O)N1` [EXAMPLE 52, 5-[2-fluoro-6-hydroxy-4-[(4-hydroxy-1-piperidyl)methyl]phenyl]-1,1-dioxo-1,2,5-thiadiazolidin-3-one], the concentration giving a half-maximal response (EC50) in assay [1] turned out to be 6.94 µM; in assay [2] it was 4.61 µM. In addition, the half-maximal inhibitory concentration (IC50) in assay [3] amounted to 0.114 µM.
On to `COC1CCN(Cc2cc(O)c(N3CC(=O)NS3(=O)=O)c(F)c2)CC1` [EXAMPLE 53, 5-[2-fluoro-6-hydroxy-4-[(4-methoxy-1-piperidyl)methyl]phenyl]-1,1-dioxo-1,2,5-thiadiazolidin-3-one], for which the EC50 in assay [1] was determined as 2.98 µM; in assay [2], 3.2 µM. Also, in assay [3], the half-maximal inhibitory concentration (IC50) came out at 0.102 µM.
For `CN(C)CC1CCN(Cc2cc(O)c(N3CC(=O)NS3(=O)=O)c(F)c2)CC1` [EXAMPLE 56, 5-[4-[[4-[(dimethylamino)methyl]-1-piperidyl]methyl]-2-fluoro-6-hydroxy-phenyl]-1,1-dioxo-1,2,5-thiadiazolidin-3-one] the same measures were at least 15 µM, at least 15 µM and 0.226 µM.
For `CNC(=O)[C@H]1CC[C@H](NCc2cc(O)c(N3CC(=O)NS3(=O)=O)c(F)c2)CC1` [EXAMPLE 58, (1r,4r)-4-((4-(1,1-dioxido-4-oxo-1,2,5-thiadiazolidin-2-yl)-3-fluoro-5-hydroxybenzyl)amino)-N-methylcyclohexane-1-carboxamide], in that order: at least 15 µM, 5.08 µM and 0.376 µM.
For `CNC(=O)CN1CCN(Cc2cc(O)c(N3CC(=O)NS3(=O)=O)c(F)c2)CC1` [EXAMPLE 59, 2-(4-(4-(1,1-dioxido-4-oxo-1,2,5-thiadiazolidin-2-yl)-3-fluoro-5-hydroxybenzyl)piperazin-1-yl)-N-methylacetamide] the same measures were at least 15 µM, at least 15 µM and 0.477 µM.
On to `CC(=O)N[C@H]1CC[C@H](NCc2cc(O)c(N3CC(=O)NS3(=O)=O)c(F)c2)CC1` [EXAMPLE 60, N-((1r,4r)-4-((4-(1,1-dioxido-4-oxo-1,2,5-thiadiazolidin-2-yl)-3-fluoro-5-hydroxybenzyl)amino)cyclohexyl)acetamide], for which the concentration for a half-maximal effect (EC50) in assay [1] and in assay [2] was at least 15 µM in each case. Also, the half-maximal inhibitory concentration (IC50) in assay [3] was 0.41 µM.
In the case of `O=C1CN(c2c(O)cc(CN[C@@H]3CCCNC3)cc2F)S(=O)(=O)N1` [EXAMPLE 61, (R)-5-(2-fluoro-6-hydroxy-4-((piperidin-3-ylamino)methyl)phenyl)-1,2,5-thiadiazolidin-3-one 1,1-dioxide], the EC50 in assay [1] amounted to 2.56 µM; in assay [2], 4.98 µM. Moreover, the concentration for half-maximal inhibition (IC50) in assay [3] came out at 0.121 µM.
For `CC(C)CCN1CCC[C@@H](NCc2cc(O)c(N3CC(=O)NS3(=O)=O)c(F)c2)C1` [EXAMPLE 62, (R)-5-(2-fluoro-6-hydroxy-4-(((1-isopentylpiperidin-3-yl)amino)methyl)phenyl)-1,2,5-thiadiazolidin-3-one 1,1-dioxide] the same measures were 14.6 µM, at least 15 µM and 0.088 µM.
For `CC(C)CCN1CCC[C@H](NCc2cc(O)c(N3CC(=O)NS3(=O)=O)c(F)c2)C1` [EXAMPLE 63, 5-[2-fluoro-6-hydroxy-4-[[[(3S)-1-isopentyl-3-piperidyl]amino]methyl]phenyl]-1,1-dioxo-1,2,5-thiadiazolidin-3-one], in that order: at least 15 µM, at least 15 µM and 0.153 µM.
For `O=C1CN(c2c(O)cc(CN[C@@H]3CCCOC3)cc2F)S(=O)(=O)N1` [EXAMPLE 64, (R)-5-(2-fluoro-6-hydroxy-4-(((tetrahydro-2H-pyran-3-yl)amino)methyl)phenyl)-1,2,5-thiadiazolidin-3-one 1,1-dioxide], in that order: 2.72 µM, 2.18 µM and 0.139 µM.
Consider `O=C1CN(c2c(O)cc(CN[C@H]3CCCNC3)cc2F)S(=O)(=O)N1` [EXAMPLE 65, (S)-5-(2-fluoro-6-hydroxy-4-((piperidin-3-ylamino)methyl)phenyl)-1,2,5-thiadiazolidin-3-one 1,1-dioxide], for which the results for the EC50 in assay [1] and in assay [2] were 6.86 µM and 5.2 µM, respectively. In assay [3], the IC50 stood at 0.13 µM.
Turning to `CC1(C)CCC[C@H](NCc2cc(O)c(N3CC(=O)NS3(=O)=O)c(F)c2)C1` [EXAMPLE 66, (S)-5-(4-(((3,3-dimethylcyclohexyl)amino)methyl)-2-fluoro-6-hydroxyphenyl)-1,2,5-thiadiazolidin-3-one 1,1-dioxide], the 50% effective concentration (EC50) in assay [1] is 0.772 µM; in assay [2] it was 0.782 µM. Besides, the 50% inhibitory concentration (IC50) in assay [3] was 0.042 µM.
As to `O=C1CN(c2c(O)cc(CN[C@H]3CCCOC3)cc2F)S(=O)(=O)N1` [EXAMPLE 67, (S)-5-(2-fluoro-6-hydroxy-4-(((tetrahydro-2H-pyran-3-yl)amino)methyl)phenyl)-1,2,5-thiadiazolidin-3-one 1,1-dioxide], the concentration giving a half-maximal response (EC50) in assay [1] was found to be 1.67 µM; in assay [2], 2.69 µM. In addition, the IC50 in assay [3] came out at 0.126 µM.
For `CC(=O)N1CCC[C@H](NCc2cc(O)c(N3CC(=O)NS3(=O)=O)c(F)c2)C1` [EXAMPLE 71, 5-[4-[[[(3S)-1-acetyl-3-piperidyl]amino]methyl]-2-fluoro-6-hydroxy-phenyl]-1,1-dioxo-1,2,5-thiadiazolidin-3-one] the same measures were 1.89 µM, 2.91 µM and 0.025 µM.
Regarding `CS(=O)(=O)N1CCC[C@@H](NCc2cc(O)c(N3CC(=O)NS3(=O)=O)c(F)c2)C1` [EXAMPLE 72, 5-[2-fluoro-6-hydroxy-4-[[[(3R)-1-methylsulfonyl-3-piperidyl]amino]methyl]phenyl]-1,1-dioxo-1,2,5-thiadiazolidin-3-one], the half-maximal effective concentration (EC50) in assay [1] turned out to be 4.69 µM; in assay [2], 3.56 µM. Also, in assay [3], the half-maximal inhibitory concentration (IC50) was determined as 0.054 µM.
For `O=C1CN(c2c(O)cc(CN[C@H]3CCCN(S(=O)(=O)C4CC4)C3)cc2F)S(=O)(=O)N1` [EXAMPLE 73, 5-[4-[[[(3S)-1-cyclopropylsulfonyl-3-piperidyl]amino]methyl]-2-fluoro-6-hydroxy-phenyl]-1,1-dioxo-1,2,5-thiadiazolidin-3-one], the values for the EC50 in assay [1] and in assay [2] were 9.84 µM and 7.8 µM, respectively. Also, the IC50 in assay [3] came out at 0.01 µM.
For `O=C1CN(c2c(O)cc(CN[C@@H]3CCCN(S(=O)(=O)C4CC4)C3)cc2F)S(=O)(=O)N1` [EXAMPLE 74, 5-[4-[[[(3R)-1-cyclopropylsulfonyl-3-piperidyl]amino]methyl]-2-fluoro-6-hydroxy-phenyl]-1,1-dioxo-1,2,5-thiadiazolidin-3-one] the same measures were 5.65 µM, 11 µM and 0.017 µM.
For `CS(=O)(=O)N1CCC[C@H](NCc2cc(O)c(N3CC(=O)NS3(=O)=O)c(F)c2)C1` [EXAMPLE 75, 5-[2-fluoro-6-hydroxy-4-[[[(3S)-1-methylsulfonyl-3-piperidyl]amino]methyl]phenyl]-1,1-dioxo-1,2,5-thiadiazolidin-3-one] the same measures were 2.19 µM, 3.22 µM and 0.037 µM.
For `O=C(O)CC(=O)N1CCC[C@H](NCc2cc(O)c(N3CC(=O)NS3(=O)=O)c(F)c2)C1` [EXAMPLE 76, 3-[(3S)-3-[[3-fluoro-5-hydroxy-4-(1,1,4-trioxo-1,2,5-thiadiazolidin-2-yl)phenyl]methylamino]-1-piperidyl]-3-oxo-propanoic acid] the same measures were at least 15 µM, at least 15 µM and 0.012 µM.

The values are drawn from US12162848B2, “Inhibitors of protein tyrosine phosphatase, compositions, and methods of use” (BRISTOL-MYERS SQUIBB COMPANY, priority 2022, dated 2024).
